Test results published in ChEMBL document CHEMBL4651402, “Screening of ~5500 FDA-approved drugs and clinical candidates for anti-SARS-CoV-2 activity” (2021).

Tested on: SARS-CoV-2
Test: microbe, parasite or virus in culture
Conditions: Severe acute respiratory syndrome coronavirus 2, Vero C1008, 48 h

## C[C@H](C(=O)O)c1ccc2cc(OCc3ccc4ccccc4n3)ccc2c1
  IC50: > 20 µM
read-out: pIC50 (converted)
  IC50: > 20 µM

## CCOCC(O)COc1ccc(NC(=O)CC[S+](C)C)cc1 (configuration not stated)
  IC50: > 20 µM
read-out: pIC50 (converted)
  IC50: > 20 µM

## C[C@H]1CN([C@H]2CC[C@](C#N)(c3ccc(F)cc3)CC2)CC[C@@]1(C(=O)O)c1ccccc1
  IC50: > 20 µM
read-out: pIC50 (converted)
  IC50: > 20 µM

## CCN(CCNC(=O)Nc1ccccc1Br)c1cccc(C)c1
  IC50: > 20 µM
read-out: pIC50 (converted)
  IC50: > 20 µM

## CC12CCC3C(CC[C@H]4CC(O)CCC34C)C1CCC2O (some centres not stated)
  IC50: > 20 µM
read-out: pIC50 (converted)
  IC50: > 20 µM

## O=S(=O)(O)CCN1CCN(CCO)CC1
  IC50: > 20 µM
read-out: pIC50 (converted)
  IC50: > 20 µM

## CC(=O)N[C@@H](CCC(N)=O)C(=O)O
  IC50: > 20 µM
read-out: pIC50 (converted)
  IC50: > 20 µM

## O=c1cc(-c2ccc(O)cc2)oc2c(C3O[C@H](CO)[C@@H](O)[C@H](O)[C@H]3O)c(O)cc(O)c12 (some centres not stated)
  IC50: > 20 µM
read-out: pIC50 (converted)
  IC50: > 20 µM

## CN1CC(=O)N2[C@@H](c3ccc4c(c3)OCO4)c3[nH]c4ccccc4c3C[C@@H]2C1=O
  IC50: > 20 µM
read-out: pIC50 (converted)
  IC50: > 20 µM

## CN1CCCCC1c1ccc(-c2cccnc2)nc1 (configuration not stated)
  IC50: > 20 µM
read-out: pIC50 (converted)
  IC50: > 20 µM

## c1ccc2[nH]c(-c3nc4ccccc4[nH]3)nc2c1
  IC50: > 20 µM
read-out: pIC50 (converted)
  IC50: > 20 µM

## COc1ccc2c3c1OC1C(O)C=CC4C(C2)[N+](C)(C)CCC341 (configuration not stated)
  IC50: > 20 µM
read-out: pIC50 (converted)
  IC50: > 20 µM

## CN1CCCN=C1/C=C/c1cccs1
  IC50: > 20 µM
read-out: pIC50 (converted)
  IC50: > 20 µM

## COCCCOc1cc(C[C@@H](C[C@H](N)[C@@H](O)C[C@H](C(=O)NCC(C)(C)C(N)=O)C(C)C)C(C)C)ccc1OC
  IC50: > 20 µM
read-out: pIC50 (converted)
  IC50: > 20 µM

## COc1ccc2cc1Oc1cc3c(cc1OC)CC[N+](C)(C)C3Cc1ccc(cc1)Oc1c(OC)c(OC)cc3c1C(C2)[N+](C)(C)CC3 (configuration not stated)
  IC50: > 20 µM
read-out: pIC50 (converted)
  IC50: > 20 µM

## Cc1cc(/C=C\C#N)cc(C)c1Nc1ccnc(Nc2ccc(C#N)cc2)n1
  IC50: > 20 µM
read-out: pIC50 (converted)
  IC50: > 20 µM

## CC(C)(C)C(=O)Oc1ccc2c(c1)O[C@H](c1ccc(OCCN3CCCCC3)cc1)C1=C2COc2cc(OC(=O)C(C)(C)C)ccc21
  IC50: > 20 µM
read-out: pIC50 (converted)
  IC50: > 20 µM

## Nc1nc(=O)n([C@@H]2O[C@H](CO)[C@@H](O)[C@H]2F)cc1I
  IC50: > 20 µM
read-out: pIC50 (converted)
  IC50: > 20 µM

## C[C@]1(COc2ccc(N3CCC(Oc4ccc(OC(F)(F)F)cc4)CC3)cc2)Cn2cc([N+](=O)[O-])nc2O1
  IC50: > 20 µM
read-out: pIC50 (converted)
  IC50: > 20 µM

## Cc1cn(C2CC(N=[N+]=[N-])C(CO)O2)c(=O)nc1N (configuration not stated)
  IC50: > 20 µM
read-out: pIC50 (converted)
  IC50: > 20 µM

## O=C(O)c1cccc(-c2noc(-c3ccccc3F)n2)c1
  IC50: > 20 µM
read-out: pIC50 (converted)
  IC50: > 20 µM

## N=C(N)c1ccc(CNC(=O)[C@@H]2CCN2C(=O)[C@H](NCC(=O)O)C2CCCCC2)cc1
  IC50: > 20 µM
read-out: pIC50 (converted)
  IC50: > 20 µM

## CC(=O)N1CCN(c2ccc(OC[C@@H]3CO[C@](Cn4ccnc4)(c4ccc(Cl)cc4Cl)O3)cc2)CC1
  IC50: > 20 µM
read-out: pIC50 (converted)
  IC50: > 20 µM

## COc1ccnc2[nH]cc(C(=O)C(=O)N3CCN(C(=O)c4ccccc4)C[C@H]3C)c12
  IC50: > 20 µM
read-out: pIC50 (converted)
  IC50: > 20 µM

## CSc1ccc2ncn(/C=C/C(=O)O)c(=O)c2c1
  IC50: > 20 µM
read-out: pIC50 (converted)
  IC50: > 20 µM

## Cc1c(-c2ccnn2C)cc(C(=O)NCc2ccc(S(C)(=O)=O)cn2)c(=O)n1-c1cccc(C(F)(F)F)c1
  IC50: > 20 µM
read-out: pIC50 (converted)
  IC50: > 20 µM

## CN1C(=O)N(c2cc(Cl)cc(Cl)c2)C(=O)[C@@]1(C)Cc1ccc(Br)cc1
  IC50: > 20 µM
read-out: pIC50 (converted)
  IC50: > 20 µM

## C[C@H]1c2nnn(-c3ncc(F)cn3)c2CCN1C(=O)c1cccc(C(F)(F)F)c1Cl
  IC50: > 20 µM
read-out: pIC50 (converted)
  IC50: > 20 µM

## CN1CC[C@@H](c2c(O)cc(O)c3c(=O)cc(-c4ccccc4Cl)oc23)[C@@H]1CO
  IC50: > 20 µM
read-out: pIC50 (converted)
  IC50: > 20 µM

## OCC(O)C(O)CO (configuration not stated)
  IC50: > 20 µM
read-out: pIC50 (converted)
  IC50: > 20 µM

## CCOC(=O)C1=C(CN2CCOCC2)NC(c2nccs2)=N[C@@H]1c1ccc(F)cc1Br
  IC50: > 20 µM
read-out: pIC50 (converted)
  IC50: > 20 µM

## O=C1C=CC(=O)c2c1ccc1c2ccc2ccccc21
  IC50: > 20 µM
read-out: pIC50 (converted)
  IC50: > 20 µM

## CNc1cccc(NC(=O)NC2N=C(c3ccccn3)c3ccccc3N(CC(=O)C(C)(C)C)C2=O)c1 (configuration not stated)
  IC50: > 20 µM
read-out: pIC50 (converted)
  IC50: > 20 µM

## O=C(O)CCCNC(=O)c1cccnc1
  IC50: > 20 µM
read-out: pIC50 (converted)
  IC50: > 20 µM

## CC(C(=O)Nc1ccc(Cl)cc1)[C@H]1CC[C@@H](c2ccnc3ccc(F)cc32)CC1 (some centres not stated)
  IC50: > 20 µM
read-out: pIC50 (converted)
  IC50: > 20 µM

## CC1(C)CC[C@]2(C(=O)O)CC[C@]3(C)C(=CCC4[C@@]5(C)CC[C@@H](O)[C@@](C)(CO)C5CC[C@]43C)C2C1 (some centres not stated)
  IC50: > 20 µM
read-out: pIC50 (converted)
  IC50: > 20 µM
